Data published in the NIST ThermoML archive (doi:10.1021/acs.jced.8b00939).
Numbers after ± are expanded uncertainties. Each block holds one compound with its values, some of them ahead of it.

Assays:
[1] = 298.15 K, 100 kPa, Liquid; for viscosity: Falling or rolling sphere viscometry; for mass density: Vibrating tube method
[2] = xn = mol fraction of the nth substance listed; conditions: 298.2 K, 100 kPa, Liquid, x1 = 0.0843
[3] = wn = mass fraction of the nth substance listed; conditions: 298.2 K, 100 kPa, Liquid; for viscosity: Falling or rolling sphere viscometry; for mass density: Vibrating tube method

SMILES: C=CCc1ccc(O)c(OC)c1 [2-hydroxy-5-allylanisole]
viscosity [1]: 6.98 ± 0.08 mPa·s
mass density [1]: 1062 ± 2 kg/m3

SMILES: C=CC(C)(O)CCC=C(C)C (stereo not drawn) [3,7-dimethyl-1,6-octadien-3-ol]
viscosity [1]: 4.35 ± 0.05 mPa·s
mass density [1]: 857.3 ± 1.7 kg/m3

SMILES: C/C1=C\CC/C(C)=C/CC(C)(C)/C=C/C1 [(E,E,E)-2,6,6,9-tetramethyl-1,4,8-cycloundecatriene] + C=C1CC/C=C(\C)CC[C@@H]2[C@@H]1CC2(C)C
viscosity ([2]; Falling or rolling sphere viscometry): 5.87 ± 0.07 mPa·s
mass density ([2]; Vibrating tube method): 897.1 ± 1.8 kg/m3

SMILES: C=C(C)[C@H]1CC=C(C)CC1 [(R)-1-methyl-4-(1-methylethenyl)cyclohexene]
viscosity [1]: 0.87 ± 0.01 mPa·s
mass density [1]: 839.1 ± 1.7 kg/m3

Results, then the compound that gave them:

viscosity [1]: 1.13 ± 0.01 mPa·s
mass density [1]: 785.1 ± 1.6 kg/m3
SMILES: CCO [ethanol]

viscosity ([3]; w2 = 0.061): 1.31 ± 0.02 mPa·s
viscosity ([3]; w2 = 0.124): 1.46 ± 0.02 mPa·s
viscosity ([3]; w2 = 0.172): 1.64 ± 0.04 mPa·s
viscosity ([3]; w2 = 0.233): 1.8 ± 0.03 mPa·s
viscosity ([3]; w2 = 0.276): 1.87 ± 0.02 mPa·s
viscosity ([3]; w2 = 0.34): 1.9 ± 0.1 mPa·s
viscosity ([3]; w2 = 0.41): 2.19 ± 0.15 mPa·s
viscosity ([3]; w2 = 0.5): 2.31 ± 0.03 mPa·s
viscosity ([3]; w2 = 0.62): 2.34 ± 0.02 mPa·s
mass density ([3]; w2 = 0.061): 802.5 ± 1.9 kg/m3
mass density ([3]; w2 = 0.124): 819.5 ± 2 kg/m3
mass density ([3]; w2 = 0.172): 833.4 ± 3.1 kg/m3
mass density ([3]; w2 = 0.233): 848.2 ± 3.3 kg/m3
mass density ([3]; w2 = 0.276): 857.9 ± 2.6 kg/m3
mass density ([3]; w2 = 0.34): 861.8 ± 9 kg/m3
mass density ([3]; w2 = 0.41): 887.3 ± 18 kg/m3
mass density ([3]; w2 = 0.5): 908.8 ± 4.9 kg/m3
mass density ([3]; w2 = 0.62): 935.2 ± 9 kg/m3
SMILES: CCO [ethanol] + O

viscosity [1]: 2.3 ± 0.03 mPa·s
mass density [1]: 898.6 ± 1.8 kg/m3
SMILES: C=CC(C)(CCC=C(C)C)OC(C)=O (stereo not drawn) [linalool acetate]

viscosity [1]: 4.23 ± 0.04 mPa·s
mass density [1]: 1031 ± 2 kg/m3
SMILES: C=CCc1ccc(OC)c(OC)c1 [methyleugenol]

viscosity [1]: 0.89 ± 0.01 mPa·s
SMILES: O [water]
